Test results reported in patent publication US7381521B2, “Anti-pathogenic composition useful in blood preservation” (Altachem Pharma Ltd., priority 2001, dated 2008).

Assays:
E. coli ATCC 11229 = experiment: Test 2 (DGHM), action as a function of disinfection time at 22° C., 2 × 10^9 organisms/ml; assay type: cell-based, Escherichia coli
Procedure: (§1) Another test was carried out a basis of the following solutions • 100 ml of a 0.1% solution of chlorohexidine digluconate (pH 6); and • 100 ml of a 0.1% solution of Bardac22®.
(§2) The activity of these solutions, alone or in combination, was more particularly tested in respect of Staphylococcus aureus ATCC 6538, Escherichia coli ATCC 11229 and Candida albicans ATCC 10231.
(§3) The tests were conducted in accordance with the procedure described in Chapter I/2.1 and 2.2 of Tichtlinien für die Prüfung und Bewertung chemischer Desinfektionsverfahren der DGHM/Guidelines for Testing and Evaluating Chemical Disinfection Processes of DGHM as at 1.1, 1981.

[1] = system: Candida albicans ATCC 1031; experiment: Test 2 (DGHM), growth inhibition by dilutions, 72 hours at 37° C.; assay type: cell-based
Procedure: as §1, §2, §3
Tables IX, X and XI respectively illustrate the bactericidal and fungicidal activity of a 0.1% aqueous solution of chlorohexidine digluconate, a 0.1% aqueous solution of Bardac22® and a mixture of equal parts of both compounds. The procedures of which these Tables illustrate the results comprise incubation of 72 hours at 37° C. and the use of the following inactivating substances as controls: • A: 3% Tween®80+0.3% lecithin+0.1% cysteine • B: 3% Tween®80+3% saponin+0.1% cysteine+0.1% histidine; • C: 3% Tween®80+0.3% lecithin+0.1% histidine+0.5% sodium thiosulphate.
In these Tables, the sign “+” indicates an increase and the sign “−” denotes the absence of growth.

[2] = 0.00625% vol/vol, inactivator A
[3] = 0.00625% vol/vol, inactivator B
[4] = 0.00625% vol/vol, inactivator C
[5] = 0.00625% vol/vol, no inactivator
[6] = 0.0125% vol/vol, no inactivator

CCCCCCCCCC[N+](C)(C)CCCCCCCCCC.[Cl-] [Bardac ®, didecyl dimethyl ammonium chloride]
−: growth (E. coli ATCC 11229; 5% vol/vol, 15 min) | growth (E. coli ATCC 11229; 5% vol/vol, 30 min) | growth (E. coli ATCC 11229; 5% vol/vol, 60 min) | growth (E. coli ATCC 11229; 10% vol/vol, 5 min) | growth (E. coli ATCC 11229; 10% vol/vol, 15 min) | growth (E. coli ATCC 11229; 10% vol/vol, 30 min) | growth (E. coli ATCC 11229; 10% vol/vol, 60 min) | growth (E. coli ATCC 11229; 25% vol/vol, 1 min) | growth (E. coli ATCC 11229; 25% vol/vol, 3 min) | growth (E. coli ATCC 11229; 25% vol/vol, 5 min) | growth (E. coli ATCC 11229; 25% vol/vol, 15 min) | growth (E. coli ATCC 11229; 25% vol/vol, 30 min) | growth (E. coli ATCC 11229; 25% vol/vol, 60 min) | growth ([1]; 0.1% vol/vol, no inactivator) | growth ([1]; 0.5% vol/vol, no inactivator) | growth ([1]; 1.0% vol/vol, no inactivator)
0.0001%: concentration of active substance inhibiting growth [1]
+: growth (E. coli ATCC 11229; 0.05% vol/vol, 1 min) | growth (E. coli ATCC 11229; 0.05% vol/vol, 3 min) | growth (E. coli ATCC 11229; 0.05% vol/vol, 5 min) | growth (E. coli ATCC 11229; 0.05% vol/vol, 15 min) | growth (E. coli ATCC 11229; 0.05% vol/vol, 30 min) | growth (E. coli ATCC 11229; 0.05% vol/vol, 60 min) | growth (E. coli ATCC 11229; 0.1% vol/vol, 1 min) | growth (E. coli ATCC 11229; 0.1% vol/vol, 3 min) | growth (E. coli ATCC 11229; 0.1% vol/vol, 5 min) | growth (E. coli ATCC 11229; 0.1% vol/vol, 15 min) | growth (E. coli ATCC 11229; 0.1% vol/vol, 30 min) | growth (E. coli ATCC 11229; 0.1% vol/vol, 60 min) | growth (E. coli ATCC 11229; 0.5% vol/vol, 1 min) | growth (E. coli ATCC 11229; 0.5% vol/vol, 3 min) | growth (E. coli ATCC 11229; 0.5% vol/vol, 5 min) | growth (E. coli ATCC 11229; 0.5% vol/vol, 15 min) | growth (E. coli ATCC 11229; 0.5% vol/vol, 30 min) | growth (E. coli ATCC 11229; 0.5% vol/vol, 60 min) | growth (E. coli ATCC 11229; 1% vol/vol, 1 min) | growth (E. coli ATCC 11229; 1% vol/vol, 3 min) | growth (E. coli ATCC 11229; 1% vol/vol, 5 min) | growth (E. coli ATCC 11229; 1% vol/vol, 15 min) | growth (E. coli ATCC 11229; 1% vol/vol, 30 min) | growth (E. coli ATCC 11229; 1% vol/vol, 60 min) | growth (E. coli ATCC 11229; 5% vol/vol, 1 min) | growth (E. coli ATCC 11229; 5% vol/vol, 3 min) | growth (E. coli ATCC 11229; 5% vol/vol, 5 min) | growth (E. coli ATCC 11229; 10% vol/vol, 1 min) | growth (E. coli ATCC 11229; 10% vol/vol, 3 min) | growth [1, 2] | growth [1, 3] | growth [1, 4] | growth [1, 5] | growth ([1]; 0.0125% vol/vol, inactivator A) | growth ([1]; 0.0125% vol/vol, inactivator B) | growth ([1]; 0.0125% vol/vol, inactivator C) | growth [1, 6] | growth ([1]; 0.025% vol/vol, inactivator A) | growth ([1]; 0.025% vol/vol, inactivator B) | growth ([1]; 0.025% vol/vol, inactivator C) | growth ([1]; 0.025% vol/vol, no inactivator) | growth ([1]; 0.05% vol/vol, inactivator A) | growth ([1]; 0.05% vol/vol, inactivator B) | growth ([1]; 0.05% vol/vol, inactivator C) | growth ([1]; 0.05% vol/vol, no inactivator) | growth ([1]; 0.1% vol/vol, inactivator A) | growth ([1]; 0.1% vol/vol, inactivator B) | growth ([1]; 0.1% vol/vol, inactivator C) | growth ([1]; 0.5% vol/vol, inactivator A) | growth ([1]; 0.5% vol/vol, inactivator B) | growth ([1]; 0.5% vol/vol, inactivator C) | growth ([1]; 1.0% vol/vol, inactivator A) | growth ([1]; 1.0% vol/vol, inactivator B) | growth ([1]; 1.0% vol/vol, inactivator C)
0.1%: dilution of the 0.1% solution inhibiting growth [1]

[H]/N=C(\N/C(=N/[H])NCCCCCCNC(=N)NC(=N)Nc1ccc(Cl)cc1)Nc1ccc(Cl)cc1 [Chlorhexidine, chlorohexidine digluconate, reference compound]
0.001%: concentration of active substance inhibiting growth [1]
+: growth (E. coli ATCC 11229; 0.05% vol/vol, 1 min) | growth (E. coli ATCC 11229; 0.05% vol/vol, 3 min) | growth (E. coli ATCC 11229; 0.05% vol/vol, 5 min) | growth (E. coli ATCC 11229; 0.05% vol/vol, 15 min) | growth (E. coli ATCC 11229; 0.05% vol/vol, 30 min) | growth (E. coli ATCC 11229; 0.05% vol/vol, 60 min) | growth (E. coli ATCC 11229; 0.1% vol/vol, 1 min) | growth (E. coli ATCC 11229; 0.1% vol/vol, 3 min) | growth (E. coli ATCC 11229; 0.1% vol/vol, 5 min) | growth (E. coli ATCC 11229; 0.1% vol/vol, 15 min) | growth (E. coli ATCC 11229; 0.1% vol/vol, 30 min) | growth (E. coli ATCC 11229; 0.1% vol/vol, 60 min) | growth (E. coli ATCC 11229; 0.5% vol/vol, 1 min) | growth (E. coli ATCC 11229; 0.5% vol/vol, 3 min) | growth (E. coli ATCC 11229; 0.5% vol/vol, 5 min) | growth (E. coli ATCC 11229; 0.5% vol/vol, 15 min) | growth (E. coli ATCC 11229; 0.5% vol/vol, 30 min) | growth (E. coli ATCC 11229; 0.5% vol/vol, 60 min) | growth (E. coli ATCC 11229; 1% vol/vol, 1 min) | growth (E. coli ATCC 11229; 1% vol/vol, 3 min) | growth (E. coli ATCC 11229; 1% vol/vol, 5 min) | growth (E. coli ATCC 11229; 1% vol/vol, 15 min) | growth (E. coli ATCC 11229; 1% vol/vol, 30 min) | growth (E. coli ATCC 11229; 1% vol/vol, 60 min) | growth (E. coli ATCC 11229; 5% vol/vol, 1 min) | growth (E. coli ATCC 11229; 5% vol/vol, 3 min) | growth (E. coli ATCC 11229; 5% vol/vol, 5 min) | growth (E. coli ATCC 11229; 5% vol/vol, 15 min) | growth (E. coli ATCC 11229; 10% vol/vol, 1 min) | growth (E. coli ATCC 11229; 10% vol/vol, 3 min) | growth (E. coli ATCC 11229; 10% vol/vol, 5 min) | growth (E. coli ATCC 11229; 25% vol/vol, 1 min) | growth (E. coli ATCC 11229; 25% vol/vol, 3 min) | growth (E. coli ATCC 11229; 25% vol/vol, 5 min) | growth [1, 2] | growth [1, 3] | growth [1, 4] | growth [1, 5] | growth ([1]; 0.0125% vol/vol, inactivator A) | growth ([1]; 0.0125% vol/vol, inactivator B) | growth ([1]; 0.0125% vol/vol, inactivator C) | growth [1, 6] | growth ([1]; 0.025% vol/vol, inactivator A) | growth ([1]; 0.025% vol/vol, inactivator B) | growth ([1]; 0.025% vol/vol, inactivator C) | growth ([1]; 0.025% vol/vol, no inactivator) | growth ([1]; 0.05% vol/vol, inactivator A) | growth ([1]; 0.05% vol/vol, inactivator B) | growth ([1]; 0.05% vol/vol, inactivator C) | growth ([1]; 0.05% vol/vol, no inactivator) | growth ([1]; 0.1% vol/vol, inactivator A) | growth ([1]; 0.1% vol/vol, inactivator B) | growth ([1]; 0.1% vol/vol, inactivator C) | growth ([1]; 0.1% vol/vol, no inactivator) | growth ([1]; 0.5% vol/vol, inactivator A) | growth ([1]; 0.5% vol/vol, inactivator B) | growth ([1]; 0.5% vol/vol, inactivator C) | growth ([1]; 0.5% vol/vol, no inactivator) | growth ([1]; 1.0% vol/vol, inactivator A) | growth ([1]; 1.0% vol/vol, inactivator B) | growth ([1]; 1.0% vol/vol, inactivator C)
−: growth (E. coli ATCC 11229; 5% vol/vol, 30 min) | growth (E. coli ATCC 11229; 5% vol/vol, 60 min) | growth (E. coli ATCC 11229; 10% vol/vol, 15 min) | growth (E. coli ATCC 11229; 10% vol/vol, 30 min) | growth (E. coli ATCC 11229; 10% vol/vol, 60 min) | growth (E. coli ATCC 11229; 25% vol/vol, 15 min) | growth (E. coli ATCC 11229; 25% vol/vol, 30 min) | growth (E. coli ATCC 11229; 25% vol/vol, 60 min) | growth ([1]; 1.0% vol/vol, no inactivator)
1%: dilution of the 0.1% solution inhibiting growth [1]
